Here are results for 6 compounds from patent US20100240748A1, “TETRAHYDRONAPHTHALEN-2-OL DERIVATIVES” (N. V. Organon, priority 2009, published 2010).

The target of data set [1] is human estrogen receptor β (hERβ) (Homo sapiens, UniProt Q92731). In words: ERβ transactivation bioassay in recombinant CHO cells (hERβ, rat oxytocin promoter, luciferase reporter). It is filed as cell-based. The conditions noted are these: for ERβ/ERα ratio: ERβ agonistic selectivity over ERα, transactivation data; for EC50: transactivation of luciferase in CHO cells co-transfected with hERβ, read-out: ERβ agonistic EC50. How it is done:
(§1) The estrogenic and antiestrogenic activity of compounds was determined in an in vitro bioassay with recombinant Chinese hamster ovary (CHO) cells stably co-transfected with the human estrogen receptor α (hERα) or β receptor (hERβ), the rat oxytocin promoter (RO) and the luciferase reporter gene (LUC). The estrogenic activity of a test compound to stimulate the transactivation of the enzyme luciferase mediated via the estrogen receptors hERα or hERβ is expressed in nM. The assay was performed as described by De Gooyer et al., Steroids 68 (2003), 21-30.
For orientation: In a reporter assay the amount or activity of a reporter protein is the signal.

Data set [2] concerns the target T1, human estrogen receptor α (hERα) (Homo sapiens, UniProt P03372).
T1 sequence (P03372 1-595): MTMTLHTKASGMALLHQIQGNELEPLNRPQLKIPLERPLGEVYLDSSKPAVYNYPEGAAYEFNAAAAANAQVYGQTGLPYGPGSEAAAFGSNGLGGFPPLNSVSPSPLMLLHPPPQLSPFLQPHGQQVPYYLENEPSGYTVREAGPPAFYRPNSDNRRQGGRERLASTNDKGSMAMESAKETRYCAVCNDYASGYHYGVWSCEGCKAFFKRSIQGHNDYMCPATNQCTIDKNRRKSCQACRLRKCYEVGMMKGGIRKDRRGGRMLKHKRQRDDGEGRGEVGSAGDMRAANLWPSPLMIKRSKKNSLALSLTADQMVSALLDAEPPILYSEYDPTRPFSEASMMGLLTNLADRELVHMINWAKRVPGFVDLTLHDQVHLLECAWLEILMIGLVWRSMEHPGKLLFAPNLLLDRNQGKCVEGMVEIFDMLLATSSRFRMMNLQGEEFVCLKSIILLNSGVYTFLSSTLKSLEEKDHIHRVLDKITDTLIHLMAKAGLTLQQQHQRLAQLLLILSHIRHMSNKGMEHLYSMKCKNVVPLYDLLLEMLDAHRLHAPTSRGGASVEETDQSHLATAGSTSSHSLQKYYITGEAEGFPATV
In words: ERα transactivation bioassay in recombinant CHO cells (hERα, rat oxytocin promoter, luciferase reporter). It is filed as cell-based. As to conditions: ratio of activities of eutomer and distomer on ERα. How it is done:
as §1

The subject of the next data set is human hepatocytes. In words: metabolic stability in human hepatocytes. It counts as in vitro ADME. As to conditions: tetrahydronaphthalen-2-ol; 37° C., sampled 0-120 min, LC-MS/MS. How it is done:
(§2) A number of compounds 9, 11 and 12 were tested on metabolic stability in human hepatocytes. The hepatic stability was compared to corresponding chroman compounds 25, 26 or 27 (see structures below).
(§3) Test compounds were diluted to 3 μM in incubation medium. Then 40 μl of the 3 μM test compounds was pipetted into a 96 well microtiter plate (flat bottom). Hepatocytes (stored at −140° C.) were thawed in a 37° C. water bath. The cells were resuspended into pre-warmed thawing medium and were centrifuged for 5 minutes at 50 g at room temperature. The supernatant was discarded and the remaining cell pellet was resuspended in warm incubation medium and diluted to 7.5 E5 cells/ml. Then 80 μl of the cell suspension was added to each well of the 96 well microtiter plate containing the test compounds. The resulting mixture was incubated at 37° C. and was sampled at t=0, 5, 30, 60, and 120 min. The samples were analyzed by LC-MS/MS to determine the content of unchanged test compound. Based on the rate of reduction of the content of test compound over time, the half-live (T½) was calculated.

Data set [3] can be described thus: metabolic stability in human hepatocytes. As to conditions: human, cryopreserved human hepatocytes (suspension); tetrahydronaphthalen-2-ol; 37° C., sampled 0-120 min, LC-MS/MS; read-out: Human hepatocyte T 1/2. It is filed as in vitro ADME. How it is done:
as §2, §3

The test system of data set [4] is acinar epithelium of the ventral prostate. In words: short-term prostate apoptosis and proliferation model in castrated rats. It is filed as in vivo, rat. How it is done:
Selected compounds were tested in a short-term prostate apoptosis and proliferation model in castrated rats.
Intact mature male Wistar rats (350-400 g) were castrated and left to recover for 1 week. 7 days after the castration rats received a single subcutaneous injection of testosterone buciclate (TB), a long-acting testosterone ester, in arachis oil (20 mg/kg) with a volume of 1 ml/kg and were subsequently treated once daily orally for 3 days with the test substance at doses between 0 and 1000 μg/kg, dissolved in gelatin/mannitol and dosed with a volume of 1 ml/kg.
At the end of the experiment rats were euthanized, the prostates were removed, weighed and processed for histology.
Apoptosis of the acinar epithelium of the ventral prostate was determined with TUNEL ([…]) staining. Apoptotic cells show nuclear DNA fragmentation and the TUNEL assay end-labels the fragmented DNA by incorporating biotinylated dUTP at the 3′-OH DNA ends using the enzyme Terminal deoxynucleotidyl Transferase (TdT). Positively stained cells are counted per acinus (glandular unit) in the ventral prostate. Proliferation of the acinar epithelium of the ventral prostate was determined by immunohistochemical staining with an antibody directed against Ki67 (clone Mib5). Positively stained cells are counted per acinus (glandular unit) in the ventral prostate. Statistical significance is determined as compared to TB alone by one-way ANOVA.

human estrogen receptor β (hERβ), sequence (Q92731 whole entry): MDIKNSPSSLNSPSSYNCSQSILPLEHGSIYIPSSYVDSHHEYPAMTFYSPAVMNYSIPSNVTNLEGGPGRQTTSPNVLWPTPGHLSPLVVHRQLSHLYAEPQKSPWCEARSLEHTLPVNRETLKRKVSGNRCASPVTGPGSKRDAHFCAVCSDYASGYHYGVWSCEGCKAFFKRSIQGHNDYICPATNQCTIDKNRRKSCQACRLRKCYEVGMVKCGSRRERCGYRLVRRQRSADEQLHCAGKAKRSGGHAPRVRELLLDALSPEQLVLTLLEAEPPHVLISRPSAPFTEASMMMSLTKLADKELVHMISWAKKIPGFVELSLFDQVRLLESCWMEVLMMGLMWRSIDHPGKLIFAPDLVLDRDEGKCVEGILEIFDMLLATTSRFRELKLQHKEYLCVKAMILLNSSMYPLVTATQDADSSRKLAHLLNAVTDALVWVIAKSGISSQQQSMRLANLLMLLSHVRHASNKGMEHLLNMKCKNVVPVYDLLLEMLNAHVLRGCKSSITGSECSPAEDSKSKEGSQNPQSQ

What is called EC50 is the concentration giving half of the maximal effect. Take “(6S,7S,8S)-7-ethyl-6-(3- fluoro-4-hydroxyphenyl)- 8-(2-fluorobenzy1)-5,6, 7,8-tetrahydro- naphthalen-2-ol [Compound 11q]”: in data set [1], the ERβ/ERα ratio was over 169 and the EC50 was 0.59 nM. Besides, in data set [1] (ratio of activities of eutomer and distomer on ERβ), the ERβ eudismic ratio is reported as 7. Further, the ERα eudismic ratio in data set [2] was under 0.3. Besides, in the data set on human hepatocytes, the “Human hepatocyte T 1/2” value is reported as 82.2 min.

For `C[C@H]1[C@@H](c2ccc(O)cc2)Cc2ccc(O)cc2[C@H]1Cc1c(F)cccc1F` (single isomer, unassigned) [Compound 11i], the half-life at 1 µM in data set [3] is 29.4 min.

Take `C[C@H]1[C@@H](c2ccc(O)cc2)Cc2ccc(O)cc2[C@H]1Cc1ccccc1F` (single isomer, unassigned) [Compound 11a]: the epithelial cell proliferation result in data set [4] (at 3 μg/kg, Ki67 staining, compared to TB-alone treated rats) is given as “decrease in epithelial cell proliferation”. Moreover, in data set [4] (castrated Wistar rats with testosterone buciclate, once daily orally for 3 days, TUNEL staining, ventral prostate), the “minimal active dose (MAD), increase in epithelial cell apoptosis” value stood at 3 µg/kg. Also, the epithelial cell apoptosis entry in data set [4] (castrated rats, TUNEL staining, compared to TB alone, one-way ANOVA) is given as “statistically significant (p<0.01) increase in epithelial cell apoptosis”.

For `CC[C@@H]1[C@H](c2ccc(O)c(F)c2)Cc2ccc(O)cc2[C@@H]1Cc1ccccc1F` (single isomer, unassigned) [Compound 12q], the half-life at 1 µM in data set [3] was over 120 min.

For the compound `C[C@@H]1[C@H](c2ccc(O)cc2)Cc2ccc(O)cc2[C@@H]1Cc1c(F)cccc1F` (single isomer, unassigned) [Compound 12i], the half-life at 1 µM in data set [3] is 33.7 min.

`CCC1C(c2ccc(O)c(F)c2)Cc2ccc(O)cc2C1Cc1ccccc1F` (racemic) [Compound 9q, 7-ethyl-6-(3-fluoro-4-hydroxyphenyl)-8-(2-fluorobenzyl)-5,6,7,8-tetrahydronaphthalen-2-ol]: in data set [1], the ERβ/ERα ratio is recorded as over 67 and the EC50 was determined as 1.5 nM.
